Tests used:
[1] = system: MCF7/vBOS cells (DSM ACC3321); assay: Prevention of fulvestrant-induced discontinuous adherens junctions by estrogenic compounds; format: cell-based, human; settings: for prevention of the formation of discontinuous adherens junctions: along with 10^−8 M fulvestrant; for minimal concentration preventing the fulvestrant-induced phenotype: co-treatment with 10^−8 M fulvestrant, 48 h
Procedure: Briefly, MCF7/vBOS cells were grown on glass coverslips in multi-well tissue culture plates (TPP) for 24 h and then treated for 48 h with 0.1% EtOH (solvent control), the anti-estrogen fulvestrant in the fixed concentration of 10^−8 M and different concentrations (10^−10 M, 10^−9 M, 10^−8 M, 10^−7 M) of the ERα agonist 17β-estradiol. The solvent control was used as a positive control and fulvestrant at a concentration of 10^−8 M without 17β-estradiol addition was used as a negative control. Sample preparation and immunofluorescence microscopy was performed as described in example 2 above. After 48 hours the fraction of cells displaying discontinuous adherens junctions was determined by CellProfiler/CellProfer-analyst software (see example 7).
The same protocols as in example 2 were used with the following deviations: • Bisphenol A: Cells were grown for 24 h and then treated for 48 h with 10^−8 M fulvestrant and 10^−5 or 10^−4 M bisphenol A, respectively, diluted in DSMO. • Nonylphenol: Cells were grown for 24 h and then treated for 48 h with 10^−8 M fulvestrant and 10^−5 or 10^−4 nonylphenol, respectively, diluted in ethanol.
Briefly, cell culture, sample preparation and immunofluorescence microscopy was performed as described in example 2 (ERα signalling inhibition (fulvestrant titration)) and example 5 (ERα signalling restoration (fulvestrant at 10^−8 M in combination with 17β-estradiol titration))..
Subsequently, quantitative image analysis was performed using a pipeline that builds on the CellProfiler software (Carpenter et al., Genome Biol., 2006; 7(10):R100.) for segmentation and extraction of cellular parameters, and on the CellProfiler Analyst software (Jones et al., BMC Bioinformatics, 2008 Nov. 15; 9:482) for parameter-based classification of cells. In the segmentation process, primary objects (nuclei) were identified from DAPI staining by global thresholding using Otsu's method. Next, primary objects served as seeding points for identification of secondary objects (cell membranes) at a defined distance. Finally, tertiary objects (cytoplasm) were defined by subtracting primary from secondary objects. The resulting object masks were then applied to extract cellular parameters including area, shape, distribution and variation of pixel intensities, and mean intensity from the corresponding greyscale images using the CellProfiler MeasureObjectSizeShape, MeasureObjectRadialDistribution, MeasureTexture, and MeasureObjectIntensity modules, and stored in a database file. This database file was then imported into the Classifier module of the CellProfiler Analyst software for supervised training with a subset of cells, and subsequent parameter-based automatic classification of all cells within the entire image dataset. For immunofluorescence images, supervised training based on cell membrane features (E-Cad channel) was conducted with two classes representing continuous adherens junctions (Continuous AJs') and discontinuous adherens junctions (Discontinuous AJs′) (about 30 cells for each class). After the supervised training process had been completed, the entire image dataset from a specific experiment was evaluated and all identified cells were automatically classified into corresponding classes according to their individual parameters. The fraction of cells representing ‘Continuous AJs’ and ‘Discontinuous AJs’ classes were finally graphically represented in stacked bar plots.

[2] = system: MCF7/vBOS cells (DSM ACC3321); assay: Formation of discontinuous basolateral adherens junctions upon anti-estrogen exposure (E-Cadherin immunofluorescence); format: cell-based, human; settings: for Concentration (M) suitable for manifestation of the discontinuous basolateral adherens junctions phenotype / Culture time (h) typically required for formation of discontinuous basolateral adherens junctions: cell as deposited under DSM ACC3321; for formation of discontinuous adherens junctions (E-Cadherin staining): concentration and incubation time per compound as in FIGS. 1-3
Text: The time usually required for formation of discontinuous basolateral adherens junctions will depend on the estrogen receptor binding affinity and concentration of the anti-estrogen used on the one hand and the cell used on the other hand, but a person skilled in the art will be readily capable of determining the appropriate time spans and concentration for a given anti-estrogen and cell. For example, if the cell is a cell as deposited under accession number DSM ACC3321, suitable concentration ranges and culture times for manifestation of the discontinuous basolateral adherens junctions phenotype in presence of fulvestrant, tamoxifen, ZK 164015, MPP dihydrochloride, and (Z)-4-hydroxytamoxifen, without being limited thereto, are:
MCF7/vBOS cells were grown on glass coverslips in multi-well tissue culture plates (TPP) for 24 h and then treated for at least 48 h with 0.1% EtOH (solvent control) and different concentrations (10^−11 M, 10^−10 M, 10^−9 M, 10^−8 M, 10^−7 M) of the ERα antagonist fulvestrant (Sigma-Aldrich, CAS-No. 129453-61-8). During experiments, medium was exchanged on a daily basis. All experiments were performed at 37° C. with 5% CO2 in reduced-serum medium (phenol red-free DMEM (Gibco), 5% FBS (Biochrom, S 0615, LOT1353 W), 1% glutamine, 100 μg/ml streptomycin/100 U/ml penicillin (Biochrom)).
After treatment with fulvestrant the adherens junction morphology of the cells was analysed by means of immunofluorescence microscopy. Briefly, cells were fixed with 3.7% formaldehyde in PBS for 15 min, permeabilized with 0.2% Triton X-100 in PBS for 30 min, and blocked with 5% FBS in PBS for 60 min (all steps at room temperature). Incubation with primary and secondary antibodies in PBS containing 1.5% BSA was carried out over night at 4° C. and for 1 h at room temperature, respectively. The following antibodies/dyes were used: anti-E-Cadherin (H-108, Santa Cruz); DAPI (Roche); secondary antibody conjugated to Cy3 (alternatives are, e.g.: Cy2, Alexa Fluor 488/555/647; all Invitrogen). The samples were then mounted in Dako fluorescence mounting medium (Dako) or VectaShield (Vector Labs). All images were acquired with an Axio Observer.Z1 widefield microscope equipped with an Apotome.2 device for optical sectioning using structured illumination (Zeiss). After 48 hours the fraction of cells displaying discontinuous adherens junctions was determined by CellProfiler/CellProfer-analyst software (see example 7).
In view of the results obtained with MCF7/vBOS cells upon exposure to fulvestrant the inventors speculated that a similar phenotype might be obtainable with other ERα antagonist as well. To test this hypothesis, the inventors used the ERα antagonists tamoxifen (Sigma-Aldrich, CAS-No. 10540-29-1), MPP dihydrochloride (Sigma-Aldrich, CAS-No. 911295-24-4), ZK164015 (Tocris, CAS-No. 177583-70-9), and (Z)-4-hydroxytamoxifen (Tocris, CAS-No. 68047-06-3). The same protocols as in example 2 were used with the following deviations: • Tamoxifen: Cells were grown for 24 h and then treated for 144 h with 10^−8 and 10^−6 M tamoxifen. • MPP dihydrochloride: Cells were grown for 24 h and then treated for 144 h with 10^−8 and 10^−6 M MPP dihydrochloride. • ZK164015: Cells were grown for 24 h and then treated for 48 h with 10^−9 and 10^−7 M ZK164015. • (Z)-4-hydroxytamoxifen: Cells were grown for 24 h and then treated for 72 h with 10^−9 and 10^−8 M (Z)-4-hydroxytamoxifen.
Subsequently, quantitative image analysis was performed using a pipeline that builds on the CellProfiler software (Carpenter et al., Genome Biol., 2006; 7(10):R100.) for segmentation and extraction of cellular parameters, and on the CellProfiler Analyst software (Jones et al., BMC Bioinformatics, 2008 Nov. 15; 9:482) for parameter-based classification of cells. In the segmentation process, primary objects (nuclei) were identified from DAPI staining by global thresholding using Otsu's method. […]

| Molecule | fraction of cells with continuous adherens junctions (CellProfiler quantification) ([1]; 10^−8 M fulvestrant plus different concentrations, 48 hours) | prevention of the formation of discontinuous adherens junctions [1] | minimal concentration preventing the fulvestrant-induced phenotype [1] | Concentration (M) suitable for manifestation of the discontinuous basolateral adherens junctions phenotype [2] | Culture time (h) typically required for formation of discontinuous basolateral adherens junctions [2] | formation of discontinuous adherens junctions (E-Cadherin staining) [2] |
| --- | --- | --- | --- | --- | --- | --- |
| C[C@]12CC[C@@H]3c4ccc(O)cc4CC[C@H]3[C@@H]1CC[C@@H]2O [17β-estradiol] | restores the fraction of cells with continuous adherens junctions | prevention of the formation of discontinuous adherens junctions | 10^−9 M |  |  |  |
| CC/C(=C(\c1ccc(O)cc1)c1ccc(OCCN(C)C)cc1)c1ccccc1 [(Z)-4-hydroxytamoxifen] |  |  |  | 10^−9-10^−7 M | 48 to 144 h | Discontinuous adherens junctions became apparent |
| Cc1c(-c2ccc(O)cc2)nn(-c2ccc(O)cc2)c1-c1ccc(OCCN2CCCCC2)cc1.Cl.Cl [MPP dihydrochloride] |  |  |  | 10^−6-10^−5 M | 30 to 168 h | Discontinuous adherens junctions became apparent |
| CC/C(=C(\c1ccccc1)c1ccc(OCCN(C)C)cc1)c1ccccc1 [Tamoxifen] |  |  |  | 10^−6-10^−5 M | 30 to 168 h | Discontinuous adherens junctions became apparent |
| CCCCCS(=O)(=O)CCCCCCCCCCn1c(-c2ccc(O)cc2)c(C)c2cc(O)ccc21 [ZK 164015] |  |  |  | 10^−7-10^−5 M | 24 to 96 h | Discontinuous adherens junctions became apparent |
| CC(C)(c1ccc(O)cc1)c1ccc(O)cc1 [bisphenol A] |  | prevention of the formation of discontinuous adherens junctions | 10^−5 M |  |  |  |
| nonylphenol |  | prevention of the formation of discontinuous adherens junctions | 10^−5 M |  |  |  |
